Settings: human, in vivo
Source text: a. […] Laboratory results were then reviewed for these particular patients to determine which patients actually had clinically important changes in a given laboratory parameter.

Row | Structure (SMILES) | clinically important decreases in any hematological parameter directly attributable to the drug | patients with adverse events | responsibility for clinically meaningful elevations in ALT and AST
1 | N[C@@H](CC(=O)N1CCn2c(nnc2C(F)(F)F)C1)Cc1cc(F)c(F)cc1F [sitagliptin] | No patient experienced clinically important decreases | 8% | not responsible for the variations
2 | CN(C)C(=N)N=C(N)N [metformin] |  | 10% | 
